# Reference: ChEMBL document CHEMBL1201862, “PubChem BioAssay data set” (2004)
# Values joined by “and” are separate entries in the source; they are usually repeats but may differ in a detail not shown here. Equal values may be shown once.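 How tested: cells in 96-well plates exposed to compound for 48 hours at five concentrations. At the GI50, growth is halved.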 Active and inactive are the calls of the source. Cut-off read from the data, not from the text of the source: active = GI50 up to about 1.1 µM and inactive = higher.
# Tests used:
# Experiment in all cases: growth of human tumour cells (NCI), 48 h
# SN12C = test system: SN12C
# UACC-257 = test system: UACC-257
# HCT-116 = test system: HCT-116
# NCI-H460 = test system: NCI-H460
# RXF 393 = test system: RXF 393
# IGROV-1 = test system: IGROV-1
# OVCAR-3 = test system: OVCAR-3
# SNB-19 = test system: SNB-19
# KM12 = test system: KM12
# SK-MEL-2 = test system: SK-MEL-2
# OVCAR-5 = test system: OVCAR-5
# SF-268 = test system: SF-268
# SF-295 = test system: SF-295
# SW-620 = test system: SW-620
# SK-OV-3 = test system: SK-OV-3
# MCF7 = test system: MCF7
# M19-MEL = test system: M19-MEL
# HOP-62 = test system: HOP-62
# DLD-1 = test system: DLD-1
# XF498 = test system: XF498
SMILES,GI50 (SN12C),GI50 (UACC-257),GI50 (HCT-116),GI50 (NCI-H460),GI50 (RXF 393),GI50 (IGROV-1),GI50 (OVCAR-3),GI50 (SNB-19),GI50 (KM12),GI50 (SK-MEL-2),GI50 (OVCAR-5),GI50 (SF-268),GI50 (SF-295),GI50 (SW-620),GI50 (SK-OV-3),GI50 (MCF7),GI50 (M19-MEL),GI50 (HOP-62),GI50 (DLD-1),GI50 (XF498)
CCOC1=NC(C(F)(F)F)(C(F)(F)F)N=C(N2CCOCC2)O1,> 100 µM (inactive),> 100 µM (inactive),> 100 µM (inactive),> 100 µM (inactive),80.7 µM (inactive),> 100 µM (inactive),> 100 µM (inactive),> 100 µM (inactive),> 100 µM (inactive),> 100 µM (inactive),> 100 µM (inactive),> 100 µM (inactive),> 100 µM (inactive),> 100 µM (inactive),> 100 µM (inactive),> 100 µM (inactive),,,,
Cc1nc(-c2nc([N+](=O)[O-])c([N+](=O)[O-])[nH]2)cs1,> 100 µM (inactive),> 100 µM (inactive),> 100 µM (inactive),> 100 µM (inactive),> 100 µM (inactive),> 100 µM (inactive),> 100 µM (inactive),> 100 µM (inactive),> 100 µM (inactive),> 100 µM (inactive),> 100 µM (inactive),88.9 µM (inactive),> 100 µM (inactive),> 100 µM (inactive),> 100 µM (inactive),,> 100 µM (inactive),> 100 µM (inactive),> 100 µM (inactive),> 100 µM (inactive)
CCOC(=O)c1ncoc1[C@H]1COC(C)(C)O1,> 100 µM (inactive),> 100 µM (inactive),> 100 µM (inactive),> 100 µM (inactive),> 100 µM (inactive),> 100 µM (inactive),> 100 µM (inactive),> 100 µM (inactive),,> 100 µM (inactive),> 100 µM (inactive),> 100 µM (inactive),> 100 µM (inactive),> 100 µM (inactive),> 100 µM (inactive),,> 100 µM (inactive),> 100 µM (inactive),> 100 µM (inactive),
CN(C)CC(CC1=C(CC(CN(C)C)N(C)C)CCC1)N(C)C (stereo not given),> 100 µM (inactive),> 100 µM (inactive),> 100 µM (inactive),> 100 µM (inactive),> 100 µM (inactive),> 100 µM (inactive),> 100 µM (inactive),> 100 µM (inactive),> 100 µM (inactive),> 100 µM (inactive),> 100 µM (inactive),> 100 µM (inactive),> 100 µM (inactive),> 100 µM (inactive),> 100 µM (inactive),> 100 µM (inactive),> 100 µM (inactive),> 100 µM (inactive),> 100 µM (inactive),> 100 µM (inactive)
CCCCCCCCCCSCC(CO)NC(=O)/C=C/c1c(C)[nH]c(=O)[nH]c1=O (stereo not given),1.37 µM (inactive) and 1.09 µM (active),,1.26 µM (inactive) and 1.29 µM (inactive),1.51 µM (inactive) and 1.76 µM (inactive),1.36 µM (inactive) and 2.69 µM (inactive),2.43 µM (inactive) and 2.48 µM (inactive),916 nM (active) and 798 nM (active),881 nM (active) and 925 nM (active),1.42 µM (inactive) and 2.05 µM (inactive),1.25 µM (inactive) and 804 nM (active),> 21.2 µM (inactive) and > 27.5 µM (inactive),684 nM (active) and 723 nM (active),29.1 µM (inactive) and 17.9 µM (inactive),1.61 µM (inactive) and 1.51 µM (inactive),,753 nM (active) and 1.17 µM (inactive),1.33 µM (inactive) and 1.06 µM (active),2.03 µM (inactive) and 3.24 µM (inactive),1.44 µM (inactive) and 1.38 µM (inactive),519 nM (active) and 687 nM (active)
COc1ccc(C2=N/C(=C\c3ccccc3)C(=O)O2)cc1,,> 100 µM (inactive),,> 100 µM (inactive),> 100 µM (inactive),> 100 µM (inactive),53.7 µM (inactive),75.7 µM (inactive),36.6 µM (inactive),> 100 µM (inactive),> 100 µM (inactive),> 100 µM (inactive),> 100 µM (inactive),> 100 µM (inactive),> 100 µM (inactive),> 100 µM (inactive),,38.7 µM (inactive),,
COc1cccc2c1C(=O)c1c(O)c3c(c(O)c1C2=O)CC(O)(C(C)=O)CC3O (stereo not given),3.8 µM (inactive),10.6 µM (inactive),2.41 µM (inactive),1.56 µM (inactive),5.98 µM (inactive),3.44 µM (inactive),7.8 µM (inactive),6.03 µM (inactive),6.17 µM (inactive),8.07 µM (inactive),10.5 µM (inactive),4.23 µM (inactive),5.73 µM (inactive),2.33 µM (inactive),11.5 µM (inactive),1.01 µM (active),5.79 µM (inactive),2.14 µM (inactive),6.85 µM (inactive),0.537 µM (active)
Nc1ccc(/N=N/c2ccc(/C=C/c3ccc(/N=N/c4ccc(N)c5ccc(S(=O)(=O)O)cc45)cc3S(=O)(=O)O)c(S(=O)(=O)O)c2)c2cc(S(=O)(=O)O)ccc12,> 100 µM (inactive),> 100 µM (inactive),> 100 µM (inactive),> 100 µM (inactive),> 100 µM (inactive),> 100 µM (inactive),> 100 µM (inactive),> 100 µM (inactive),> 100 µM (inactive),> 100 µM (inactive),> 100 µM (inactive),> 100 µM (inactive),> 100 µM (inactive),> 100 µM (inactive),> 100 µM (inactive),> 100 µM (inactive),> 100 µM (inactive),> 100 µM (inactive),> 100 µM (inactive),> 62.2 µM (inactive)
O=C1c2cc3c(cc2[C@@H]2C(O)[C@H]4O[C@H]4C4CCN1C42)OCO3 (stereo not given in full),> 37.5 µM (inactive),,> 37.5 µM (inactive),> 37.5 µM (inactive),,> 37.5 µM (inactive),> 37.5 µM (inactive),> 37.5 µM (inactive),> 37.5 µM (inactive),> 37.5 µM (inactive),> 37.5 µM (inactive),> 37.5 µM (inactive),> 37.5 µM (inactive),> 37.5 µM (inactive),> 37.5 µM (inactive),,,> 37.5 µM (inactive),,> 37.5 µM (inactive)
CCCCCCCC/C=C\CCCCCCCC(=O)O [OLEIC ACID],51.6 µM (inactive),105 µM (inactive),114 µM (inactive),101 µM (inactive),92.7 µM (inactive),178 µM (inactive),184 µM (inactive),143 µM (inactive),240 µM (inactive),206 µM (inactive),> 500 µM (inactive),101 µM (inactive),99.1 µM (inactive),140 µM (inactive),> 500 µM (inactive),104 µM (inactive),101 µM (inactive),> 500 µM (inactive),148 µM (inactive),8.91 µM (inactive)
